Where “and” joins values, the source holds several entries; their conditions need not be identical. Equal entries are not always repeated. Entries after “also recorded” stand apart in the source; their conditions may differ.
Columns and labels:
R493X progranulin [1] = assay: Read-through of progranulin R493X nonsense mutation in transfected N2A cells (FLAG Western blot); assay type: cell-based, human; conditions: for read-through of R493X progranulin (FLAG-positive bands in Western blot): N2A cells transfected with R493X progranulin, two concentrations of each compound; for read-through of R493X progranulin (FLAG-positive bands in Western blot) / read-through, FLAG band intensity as percentage of WT progranulin: 24 hours; for rescued R493X expression / read-through efficiency as % of wild-type progranulin (summary statement): N2A cell culture, conditions not restated; for read-through, FLAG band intensity as percentage of WT progranulin: dose response, maximal concentration 2000 μg/ml
Excerpt: (§1) The WT progranulin plasmid with a C-terminal FLAG tag (pC-Flag-PGRN-WT) was purchased from Sino Biological Inc. (Cat. HG10826-CF). Three nonsense mutations, Q125X, R229X and R493X, were generated using Q5 site-directed mutagenesis kit (New England Biolabs Inc., Cat. E0554S) to introduce a single nucleotide substitution in the WT progranulin gene (FIG. 1A). The WT progranulin with an N-terminal HA tag (HA-PGRN) was also generated by subcloning using the p3xHA vector (58) and HindIII and BamHI sites.
(§2) N2A cells were maintained in DMEM (Sigma, D5796) supplemented with 10% fetal bovine serum, 100 unit/mL penicillin, and 100 μg/mL streptomycin. Transient transfection was performed using Lipofectamine 2000 (Invitrogen, Life Technologies, Grand Island, N.Y., USA). […] was used for each well of 6-well plate unless otherwise described. After 6 hours transfection, fresh medium containing aminoglycoside at indicated concentrations was added to cells. Cells were applied to following experiments after exposed to drugs at certain time points. All cells were kept in a humidified incubator at 37° C. under 5% CO2/95% air.
Eleven aminoglycosides were tested in this study: G418 (Sigma-Aldrich, Cat. 4727878001), gentamicin (Sigma-Aldrich, Cat. G1397), Kanamycin (Gold Biotechnology, Cat. K-120-25), Streptomycin (Sigma-Aldrich, Cat. S9137), Amikacin (Alta Aesar, Cat. J67496), Tobramycin (Alta Aesar, Cat. J62995), Apramycin (Sigma-Aldrich, Cat. A2024), Neomycin B (Sigma-Aldrich, Cat. N6386), Netilmicin (Alta Aesar, Cat. J66302), Paromomycin (Alta Aesar, Cat. J61274), Sisomicin (Sigma-Aldrich, Cat. S7796). PTC124 was purchased from Med Chem Express (Cat. 775304-57-9).
Cells were lysed in RIPA buffer (Millipore Sigma, Cat. 20-188), centrifuged at 1000 g for 10 mins to remove debris, and then subjected to SDS electrophoresis. After electrophoresis, gels were proceeded for transferring onto nitrocellulose membranes. The membranes were then blocked with 5% milk in TBST (100 mM TRIS-HCl, pH7.5, 0.9% NaCl, 0.1% Tween-20) and incubated with indicated primary antibodies in the same solution. All immunoblotting images were acquired using a BioRad ChemiDoc MP system.
(§3) WT progranulin and three plasmids each with a single nonsense mutation (Q125X, Y229X, or R493X) and a C-terminal Flag tag (FIG. 1A) were constructed. A full-length protein must be generated for the FLAG to be detected, thus a truncated progranulin will not be detected by FLAG Western blotting. If read-through of the progranulin PTC occurs, then progranulin will be detectable by FLAG Western blotting.
R493X, which is the most common nonsense mutation in progranulin-mediated familial FTD (8, 31), was chosen to test whether aminoglycosides could induce read-through. N2A cells were transfected with the indicated plasmid, allowed to recover for 6 hours, and fresh media containing the aminoglycoside at the indicated concentrations was added to the cells for 24 hours. Cells were lysed and analyzed by Western blotting to determine the amount of progranulin protein. […] No signal was detected in lysate from cells transfected with R493X in the absence of any compounds, serving as a negative control. The FLAG-tagged WT progranulin was included as a positive control to define the expected progranulin-FLAG amount. […] It is noted that G418 induced a stronger effect than gentamicin.
A series of G418 and gentamicin concentrations were tested to examine the dose response of the read-through effect. N2A cells were transfected with the R493X progranulin plasmid, allowed to recover for 6 hours, fresh media containing either G418 or gentamicin at 100, 500, 1000 or 2000 μg/ml was added to cells for 24 hours. Cells were then lysed and lysates analyzed by Western blotting. The read-through was dose-dependent with the highest progranulin-FLAG signal corresponding to the highest concentration of compound (FIG. 2A). […]

R493X progranulin mRNA = assay: Full-length progranulin R493X mRNA level in N2A cells (qPCR); assay type: cell-based, human; conditions: with G418 treatment, qPCR (FIG. 5)
Procedure: N2A cells were exposed to G418 treatment for 24 hours with indicated concentrations after transfection. Primers specific for full length PGRN mRNA were used for qPCR. All results were normalized to full length WT progranulin in non-treated cells. N.S.: no significance. **, p<0.01; ***, p<0.001.
Total RNA was extracted with Aurum total RNA mini kit (BioRad, Cat. 732-6820), and cDNA was generated with SuperScript III first-strand synthesis system for RT-PCR (Invitrogen, Cat. 18080-051). Quantitive PCR was performed using SYBR Green (ThermoScientific, Cat. 4309155). Beta-actin primers: forward 5′-AGAGCTATGAGCTGCCTGAC-3′ (SEQ ID NO: 1); reverse 5′-GGATGTCAACGTCACACTTC-3′(SEQ ID NO: 2). Primers used for full length progranulin mRNA (including flag encoding sequence) is: forward 5′-CGTGAAGGCTTGATCCTGCGAGA-3′ (SEQ ID NO: 3), reverse 5′-CTTATCGTCATCCTTGTAATC-3′ (SEQ ID NO: 4). Annealing temperature for both beta-actin and progranulin qPCR reaction were 60° C.
In addition to inducing read-through, it has been reported that aminoglycosides can also stabilize mRNAs, which could enhance the read-through effect (35, 36). Therefore, qPCR was used to determine the mRNA levels in the absence and presence of G418.

R493X progranulin [2] = assay: Read-through of progranulin R493X nonsense mutation in transfected N2A cells (FLAG Western blot); assay type: cell-based, human; conditions: time course, 1000 μg/ml G418, 12 hours
Y229X progranulin = assay: Read-through of progranulin Y229X nonsense mutation in transfected N2A cells (FLAG Western blot); assay type: cell-based, human; conditions: 24 hours
Excerpt: as §1
(§4) N2A cells were maintained in DMEM (Sigma, D5796) supplemented with 10% fetal bovine serum, 100 unit/mL penicillin, and 100 μg/mL streptomycin. […]
as §3
(§5) Whether G418 or gentamicin could induce read-through of two additional progranulin nonsense mutations (Q125X or Y229X) and a FUS nonsense mutation R495X that has been identified in juvenile patients of the related neurodegenerative disease ALS was also tested.

LAMB3 PTC = conditions: reported (ref. 27); cited from earlier work
R495X FUS = assay: Read-through of FUS R495X nonsense mutation in transfected N2A cells (FLAG Western blot); assay type: cell-based; conditions: three concentrations, 24 hours
Procedure: Examination of G418 on the R495X mutation of FUS responsible for familial ALS. WT or R495X FUS was tagged with FLAG at the N-terminus. N2A cells were transfected with WT or R495X FUS, allowed to recover, and treated with three concentrations of G418 for 24 hours. Cells were harvested and cell lysates were subjected to SDS-PAGE and Western analysis using anti-FLAG (top) and anti-actin (lower) antibodies. The slightly higher band is WT FUS and the lower band is R495X truncated FUS.
as §2, with “air. […]” for “air.”
as §5

Q125X progranulin = assay: Read-through of progranulin Q125X nonsense mutation in transfected N2A cells (FLAG Western blot); assay type: cell-based, human; conditions: 24 hours
Excerpt: as §1, §4, §3, §5

## CN[C@@H]1[C@@H](O[C@H]2O[C@H](CO)[C@@H](N)[C@H](O)[C@H]2O)OC2C[C@@H](N)[C@@H](O[C@H]3[C@H](O)[C@@H](O)[C@H](N)C[C@@H]3N)OC2[C@@H]1O (some centres unmarked) [apramycin]
R493X progranulin [1]
  read-through of R493X progranulin (FLAG-positive bands in Western blot): did not have any detectable read-through effect

## NC[C@@H]1O[C@H](O[C@H]2[C@@H](O)[C@H](O[C@@H]3[C@@H](O)[C@H](N)C[C@H](N)[C@H]3O[C@H]3O[C@H](CO)[C@@H](O)[C@H](O)[C@H]3N)O[C@@H]2CO)[C@H](N)[C@@H](O)[C@@H]1O [paromomycin]
R493X progranulin [1]
  read-through of R493X progranulin (FLAG-positive bands in Western blot): did not have any detectable read-through effect

## NCC[C@H](O)C(=O)N[C@@H]1C[C@H](N)[C@@H](O[C@H]2O[C@H](CN)[C@@H](O)[C@H](O)[C@H]2O)[C@H](O)[C@H]1O[C@H]1O[C@H](CO)[C@@H](O)[C@H](N)[C@H]1O [amikacin]
R493X progranulin [1]
  read-through of R493X progranulin (FLAG-positive bands in Western blot): did not have any detectable read-through effect

## CCN[C@@H]1C[C@H](N)[C@@H](O[C@H]2OC(CN)=CC[C@H]2N)[C@H](O)[C@H]1O[C@H]1OC[C@](C)(O)[C@H](NC)[C@H]1O [netilmicin]
R493X progranulin [1]
  read-through of R493X progranulin (FLAG-positive bands in Western blot): did not have any detectable read-through effect

## NC[C@@H]1O[C@H](O[C@H]2[C@@H](O)[C@H](O[C@@H]3[C@@H](O)[C@H](N)C[C@H](N)[C@H]3O[C@H]3O[C@H](CN)[C@@H](O)[C@H](O)[C@H]3N)O[C@@H]2CO)[C@H](N)[C@@H](O)[C@@H]1O [neomycin B]
R493X progranulin [1]
  read-through of R493X progranulin (FLAG-positive bands in Western blot): did not have any detectable read-through effect

## CN[C@@H]1[C@@H](O)[C@@H](O[C@@H]2[C@@H](O)[C@H](O[C@H]3OC(CN)=CC[C@H]3N)[C@@H](N)C[C@H]2N)OC[C@]1(C)O [sisomicin]
R493X progranulin [1]
  read-through of R493X progranulin (FLAG-positive bands in Western blot): did not have any detectable read-through effect

## O=C(O)c1cccc(-c2noc(-c3ccccc3F)n2)c1 [PTC124]
R493X progranulin [1]
  read-through of R493X progranulin (FLAG-positive bands in Western blot): did not have any detectable read-through effect

## CN[C@@H]1[C@@H](O)[C@@H](O[C@@H]2[C@@H](O)[C@H](O[C@H]3O[C@H]([C@@H](C)O)[C@@H](O)[C@H](O)[C@H]3N)[C@@H](N)C[C@H]2N)OC[C@]1(C)O [G418]
R493X progranulin mRNA
  mRNA level of R493X as % of WT progranulin: ~60%
R493X progranulin [1]
  rescued R493X expression / read-through efficiency as % of wild-type progranulin (summary statement): ~50%
  read-through, FLAG band intensity as percentage of WT progranulin: 33.8% and > 30%
R493X progranulin [2]
  read-through as % of the WT control: ≈ 5%

## [H]/N=C(/N)N[C@H]1[C@H](O)[C@@H](O)[C@H](O[C@@H]2O[C@@H](C)[C@](O)(C=O)[C@H]2O[C@@H]2O[C@@H](CO)[C@H](O)[C@@H](O)[C@@H]2NC)[C@@H](N/C(N)=N\[H])[C@@H]1O [streptomycin]
R493X progranulin [1]
  read-through of R493X progranulin (FLAG-positive bands in Western blot): did not have any detectable read-through effect

## NC[C@H]1O[C@H](O[C@H]2[C@H](O)[C@@H](O[C@H]3O[C@H](CO)[C@@H](O)[C@H](N)[C@H]3O)[C@H](N)C[C@@H]2N)[C@H](N)C[C@@H]1O [tobramycin]
R493X progranulin [1]
  read-through of R493X progranulin (FLAG-positive bands in Western blot): did not have any detectable read-through effect

## gentamicin
Y229X progranulin
  read-through of Y229X progranulin (full-length protein by FLAG antibody): did not induce read-through
Y229X progranulin; listed as Gentamicin
  read-through of Y229X progranulin (full-length protein by FLAG antibody): no readthrough effect
LAMB3 PTC
  read-through of the LAMB3 PTC: 30-50%
R495X FUS
  read-through of FUS R495X (full-length protein): did not induce read-through
R495X FUS; listed as Gentamicin
  read-through of FUS R495X (full-length protein): did not induce readthrough
R493X progranulin [1]
  rescued R493X expression / read-through efficiency as % of wild-type progranulin (summary statement): less than 10%
  read-through of R493X progranulin (FLAG-positive bands in Western blot): induced FLAG bands; also recorded: induced read-through
  read-through, FLAG band intensity as percentage of WT progranulin: 8.6%
Q125X progranulin
  read-through of Q125X progranulin (full-length protein by FLAG antibody): did not induce read-through
Q125X progranulin; listed as Gentamicin
  read-through of Q125X progranulin (full-length protein by FLAG antibody): no readthrough effect
